Results reported in ChEMBL document CHEMBL3638467, “Aminomethyl quinolone compounds” (2013).

Target: Mitogen-activated protein kinase 8 (Homo sapiens, UniProt P45983)
Assay: In Vitro Enzyme Assay: In vitro JNK1 assay.

Chain of Mitogen-activated protein kinase 8 (P45983 whole entry): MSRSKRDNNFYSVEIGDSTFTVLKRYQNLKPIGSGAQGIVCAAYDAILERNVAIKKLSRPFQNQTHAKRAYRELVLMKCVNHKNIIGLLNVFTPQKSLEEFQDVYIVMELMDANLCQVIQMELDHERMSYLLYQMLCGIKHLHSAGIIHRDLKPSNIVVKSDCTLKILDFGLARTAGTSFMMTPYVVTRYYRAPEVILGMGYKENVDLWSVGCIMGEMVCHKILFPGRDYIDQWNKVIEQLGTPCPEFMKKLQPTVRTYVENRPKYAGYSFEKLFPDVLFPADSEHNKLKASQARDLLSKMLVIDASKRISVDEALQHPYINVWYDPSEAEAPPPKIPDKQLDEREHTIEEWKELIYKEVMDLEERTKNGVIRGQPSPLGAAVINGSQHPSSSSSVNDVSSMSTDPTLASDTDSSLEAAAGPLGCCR

**Q.** With CC(C)(O)CNC(=O)c1ccc(C(=O)NCc2cn(-c3ccccc3)c3cc(Cl)ccc3c2=O)cc1 as the molecule, how does the IC50 read?
**A.** 0.22 µM

**Q.** With O=C(NCc1cn(-c2ccccc2F)c2cc(F)ccc2c1=O)c1cnn(-c2ccccc2)c1 as the molecule, how does the IC50 read?
**A.** 0.04 µM

**Q.** How did the IC50 turn out when COC(=O)c1c(CNC(=O)c2cnc(N3CCOCC3)s2)c(=O)c2ccc(Cl)cc2n1-c1ccccc1 was run?
**A.** 0.008 µM
